Source: ChEMBL document CHEMBL1201862, “PubChem BioAssay data set” (2004)
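Following 48 hours of exposure in 96-well plates, responses at five concentrations were used to interpolate endpoints linearly. Here, GI50 denotes the concentration required for 50% inhibition of growth.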 Calls of active or inactive are those of the source. No stated cut-off is given here; in the data, active = GI50 up to about 1.1 µM and inactive = higher.

Experiments:
Assay in all cases: NCI tumour cell line growth inhibition, 48 h
[1] = tested on: OVCAR-4
[2] = tested on: HL-60
[3] = tested on: MDA-MB-435
[4] = tested on: COLO 205
[5] = tested on: HCT-116
[6] = tested on: IGROV-1
[7] = tested on: LOX IMVI
[8] = tested on: SF-539
[9] = tested on: SF-295
[10] = tested on: MOLT-4
[11] = tested on: RPMI-8226
[12] = tested on: 786-0
[13] = tested on: HOP-92
[14] = tested on: OVCAR-5
[15] = tested on: RXF 393
[16] = tested on: Hs-578T
[17] = tested on: UACC-62
[18] = tested on: A549
[19] = tested on: NCI/ADR-RES
[20] = tested on: HT-29
[21] = tested on: MDA-MB-231
[22] = tested on: SK-MEL-28
[23] = tested on: Malme-3M
[24] = tested on: CAKI-1
[25] = tested on: UACC-257
[26] = tested on: SK-MEL-5
[27] = tested on: SK-OV-3
[28] = tested on: HOP-62
[29] = tested on: SR
[30] = tested on: ACHN
[31] = tested on: NCI-H522
[32] = tested on: K562
[33] = tested on: U-251
[34] = tested on: EKVX
[35] = tested on: SW-620
[36] = tested on: TK-10
[37] = tested on: UO-31
[38] = tested on: DU-145
[39] = tested on: SF-268
[40] = tested on: OVCAR-8
[41] = tested on: SNB-75
[42] = tested on: OVCAR-3
[43] = tested on: BT-549
[44] = tested on: SN12C
[45] = tested on: KM12
[46] = tested on: CCRF-CEM
[47] = tested on: SNB-19
[48] = tested on: PC-3
[49] = tested on: NCI-H23
[50] = tested on: M14
[51] = tested on: HCT-15
[52] = tested on: A498
[53] = tested on: HCC 2998
[54] = tested on: SK-MEL-2
[55] = tested on: NCI-H226
[56] = tested on: T47D
[57] = tested on: NCI-H460
[58] = tested on: MDA-N
[59] = tested on: MCF7

With `Cc1[nH]nc(C(=O)N/N=C/c2ccccc2Cl)c1/N=N\N(C)C` as the molecule, how does the GI50 [1] read?
Its GI50 is 14.9 µM (inactive).

And the GI50 [2]?
The GI50 was 4.82 µM (inactive).

What about the GI50 [3] of the same molecule?
The GI50 was > 100 µM (inactive).

What about the GI50 [4] of the same molecule?
Its GI50 is > 100 µM (inactive).

And the GI50 [5]?
The GI50 was 4.05 µM (inactive).

What about the GI50 [6] of the same molecule?
Its GI50 is 40.8 µM (inactive).

And the GI50 [7]?
Its GI50 is > 76.4 µM (inactive).

And the GI50 [8]?
Its GI50 is 5.56 µM (inactive).

And the GI50 [9]?
Its GI50 is > 54 µM (inactive).

And the GI50 [10]?
The GI50 was 2.2 µM (inactive).

What about the GI50 [11] of the same molecule?
Its GI50 is 2.51 µM (inactive).

And the GI50 [12]?
Its GI50 is 5.04 µM (inactive).

And the GI50 [13]?
The GI50 was > 23.9 µM (inactive).

And the GI50 [14]?
Its GI50 is 18 µM (inactive).

What about the GI50 [15] of the same molecule?
The GI50 was > 37.9 µM (inactive).

And the GI50 [16]?
The GI50 was 2.09 µM (inactive).

And the GI50 [17]?
The GI50 was > 100 µM (inactive).

What about the GI50 [18] of the same molecule?
The GI50 was > 100 µM (inactive).

And the GI50 [19]?
The GI50 was 6.1 µM (inactive).

What about the GI50 [20] of the same molecule?
Its GI50 is > 53.3 µM (inactive).

What about the GI50 [21] of the same molecule?
The GI50 was > 43.5 µM (inactive).

And the GI50 [22]?
Its GI50 is > 100 µM (inactive).

What about the GI50 [23] of the same molecule?
Its GI50 is > 39.4 µM (inactive).

And the GI50 [24]?
The GI50 was > 32.9 µM (inactive).

What about the GI50 [25] of the same molecule?
Its GI50 is > 84.7 µM (inactive).

What about the GI50 [26] of the same molecule?
The GI50 was 14.6 µM (inactive).

And the GI50 [27]?
Its GI50 is > 100 µM (inactive).

And the GI50 [28]?
Its GI50 is 1.34 µM (inactive).

What about the GI50 [29] of the same molecule?
The GI50 was 0.171 µM (active).

And the GI50 [30]?
The GI50 was > 54.6 µM (inactive).

What about the GI50 [31] of the same molecule?
The GI50 was > 61.4 µM (inactive).

And the GI50 [32]?
The GI50 was 0.802 µM (active).

What about the GI50 [33] of the same molecule?
Its GI50 is 14.8 µM (inactive).

What about the GI50 [34] of the same molecule?
The GI50 was 12.4 µM (inactive).

What about the GI50 [35] of the same molecule?
Its GI50 is > 33 µM (inactive).

And the GI50 [36]?
The GI50 was 56.6 µM (inactive).

What about the GI50 [37] of the same molecule?
Its GI50 is > 57.8 µM (inactive).

What about the GI50 [38] of the same molecule?
Its GI50 is 4.28 µM (inactive).

And the GI50 [39]?
Its GI50 is > 100 µM (inactive).

And the GI50 [40]?
Its GI50 is 7.98 µM (inactive).

What about the GI50 [41] of the same molecule?
The GI50 was > 31 µM (inactive).

What about the GI50 [42] of the same molecule?
Its GI50 is 20.8 µM (inactive).

What about the GI50 [43] of the same molecule?
The GI50 was 2.99 µM (inactive).

And the GI50 [44]?
Its GI50 is > 54.3 µM (inactive).

What about the GI50 [45] of the same molecule?
Its GI50 is 2.86 µM (inactive).

And the GI50 [46]?
Its GI50 is 2.59 µM (inactive).

And the GI50 [47]?
The GI50 was > 100 µM (inactive).

And the GI50 [48]?
Its GI50 is 5.7 µM (inactive).

And the GI50 [49]?
Its GI50 is > 25.6 µM (inactive).

And the GI50 [50]?
Its GI50 is > 100 µM (inactive).

And the GI50 [51]?
The GI50 was over 100 µM.

And the GI50 [52]?
Its GI50 is 2.19 µM (inactive).

And the GI50 [53]?
Its GI50 is > 100 µM (inactive).

What about the GI50 [54] of the same molecule?
Its GI50 is > 100 µM (inactive).

And the GI50 [55]?
Its GI50 is > 100 µM (inactive).

With `O=S(=O)(O)c1cc(Cl)c(O)c2ncc(Cl)cc12` as the molecule, how does the GI50 [1] read?
Its GI50 is 42.7 µM (inactive).

And the GI50 [56]?
Its GI50 is > 100 µM (inactive).

What about the GI50 [3] of the same molecule?
Its GI50 is > 100 µM (inactive).

And the GI50 [4]?
Its GI50 is > 100 µM (inactive).

And the GI50 [5]?
Its GI50 is 36.5 µM (inactive).

What about the GI50 [6] of the same molecule?
Its GI50 is 35.4 µM (inactive).

And the GI50 [7]?
The GI50 was 31 µM (inactive).

What about the GI50 [8] of the same molecule?
The GI50 was 50.4 µM (inactive).

And the GI50 [9]?
Its GI50 is > 100 µM (inactive).

And the GI50 [57]?
The GI50 was 55.5 µM (inactive).

What about the GI50 [58] of the same molecule?
Its GI50 is > 100 µM (inactive).

What about the GI50 [10] of the same molecule?
The GI50 was 15.7 µM (inactive).

And the GI50 [11]?
The GI50 was 45.2 µM (inactive).

What about the GI50 [12] of the same molecule?
Its GI50 is 92 µM (inactive).

And the GI50 [13]?
The GI50 was 87.1 µM (inactive).

And the GI50 [14]?
Its GI50 is > 100 µM (inactive).

And the GI50 [15]?
The GI50 was > 100 µM (inactive).

What about the GI50 [59] of the same molecule?
The GI50 was 51.8 µM (inactive).

And the GI50 [17]?
Its GI50 is 50.1 µM (inactive).

And the GI50 [18]?
Its GI50 is 77.1 µM (inactive).

And the GI50 [19]?
Its GI50 is 32.8 µM (inactive).

What about the GI50 [20] of the same molecule?
The GI50 was 38.5 µM (inactive).

What about the GI50 [21] of the same molecule?
The GI50 was > 100 µM (inactive).

What about the GI50 [22] of the same molecule?
Its GI50 is > 100 µM (inactive).

What about the GI50 [24] of the same molecule?
The GI50 was > 100 µM (inactive).

And the GI50 [25]?
Its GI50 is > 100 µM (inactive).

And the GI50 [26]?
The GI50 was 84.3 µM (inactive).

And the GI50 [28]?
The GI50 was > 100 µM (inactive).

And the GI50 [29]?
Its GI50 is 32.2 µM (inactive).

And the GI50 [30]?
The GI50 was 76 µM (inactive).

What about the GI50 [32] of the same molecule?
Its GI50 is 41.6 µM (inactive).

What about the GI50 [33] of the same molecule?
Its GI50 is > 100 µM (inactive).

What about the GI50 [34] of the same molecule?
Its GI50 is 69 µM (inactive).

What about the GI50 [35] of the same molecule?
The GI50 was 56.8 µM (inactive).

What about the GI50 [37] of the same molecule?
The GI50 was 57 µM (inactive).

And the GI50 [38]?
The GI50 was > 100 µM (inactive).

What about the GI50 [40] of the same molecule?
The GI50 was 37.5 µM (inactive).

What about the GI50 [41] of the same molecule?
Its GI50 is > 100 µM (inactive).

What about the GI50 [42] of the same molecule?
The GI50 was 69.2 µM (inactive).

And the GI50 [43]?
Its GI50 is 79.4 µM (inactive).

And the GI50 [44]?
Its GI50 is 64 µM (inactive).

What about the GI50 [45] of the same molecule?
Its GI50 is > 100 µM (inactive).

What about the GI50 [46] of the same molecule?
Its GI50 is 24.6 µM (inactive).

What about the GI50 [47] of the same molecule?
Its GI50 is 84.7 µM (inactive).

And the GI50 [48]?
Its GI50 is > 100 µM (inactive).

What about the GI50 [49] of the same molecule?
Its GI50 is 72.4 µM (inactive).

And the GI50 [50]?
The GI50 was 90.8 µM (inactive).

What about the GI50 [51] of the same molecule?
Its GI50 is 41.7 µM.

What about the GI50 [52] of the same molecule?
The GI50 was > 100 µM (inactive).

And the GI50 [53]?
The GI50 was > 100 µM (inactive).

And the GI50 [54]?
Its GI50 is > 100 µM (inactive).

What about the GI50 [55] of the same molecule?
The GI50 was 73.1 µM (inactive).
